# Patent US20140155445A1, “Compounds and Methods for Treating Cancer and Diseases of the Central Nervous System” (Osta Biotechnologies Inc., priority 2007, published 2014)
# Where a name gives a salt, the structure may show the parent alone. Read-outs that look alike come from different tables or passages of the source.
# Tests used:
# HO-2 (rat brain) = molecular target: T1, HO-2 (rat brain) (Rattus norvegicus, UniProt P23711); assay: HO enzymatic activity in rat brain microsomal fraction (CO formed from methemalbumin, gas chromatography); type: biochemical; conditions: rat brain microsomes, average ± standard deviation of replicate experiments, read-out: IC50 HO-2 (rat brain)/μM
# T1 construct: brain microsomes were used as a source of HO-2; from tissue; host or cells: brain microsomal fraction of adult male Sprague-Dawley rats
# T1 sequence (P23711 1-315): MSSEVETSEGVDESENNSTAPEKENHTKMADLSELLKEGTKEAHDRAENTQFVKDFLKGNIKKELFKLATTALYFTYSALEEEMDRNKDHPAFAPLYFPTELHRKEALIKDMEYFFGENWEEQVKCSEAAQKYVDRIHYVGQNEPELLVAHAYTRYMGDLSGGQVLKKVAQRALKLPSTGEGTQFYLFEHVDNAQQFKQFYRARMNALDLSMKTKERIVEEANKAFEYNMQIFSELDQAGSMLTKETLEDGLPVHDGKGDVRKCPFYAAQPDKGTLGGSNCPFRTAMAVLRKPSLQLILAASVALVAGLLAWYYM
# HO-1 (rat spleen) = molecular target: T2, HO-1 (rat spleen) (Rattus norvegicus, UniProt P06762); assay: HO enzymatic activity in rat spleen microsomal fraction (CO formed from methemalbumin, gas chromatography); type: biochemical; conditions: rat spleen microsomes; average ± standard deviation of replicate experiments; read-out: IC50 HO-1 (rat spleen)/μM
# T2 construct: Spleen microsomes were used as a source of HO-1; from tissue; host or cells: spleen microsomal fraction of adult male Sprague-Dawley rats
# T2 sequence (P06762 1-289): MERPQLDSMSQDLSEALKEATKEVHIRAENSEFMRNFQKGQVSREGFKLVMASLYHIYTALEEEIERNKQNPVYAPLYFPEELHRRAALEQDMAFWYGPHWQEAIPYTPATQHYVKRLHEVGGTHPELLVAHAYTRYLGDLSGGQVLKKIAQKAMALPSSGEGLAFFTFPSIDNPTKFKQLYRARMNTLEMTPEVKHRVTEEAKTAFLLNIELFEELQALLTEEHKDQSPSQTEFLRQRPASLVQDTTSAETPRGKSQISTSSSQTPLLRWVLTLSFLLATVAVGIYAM
SMILES,IC50 (HO-2 (rat brain)) [µM],IC50 (HO-1 (rat spleen)) [µM],IC50 (HO-2 (rat brain); hydrochloride) [µM]
O=C(CCn1ccnc1)C12CC3CC(CC(C3)C1)C2 [1-adamantan-1-yl-3-imidazol-1-yl-propan-1-one hydrochloride],~100,3.5 ± 0.8,
c1cn(CC23CC4CC(CC(C4)C2)C3)cn1 [1-adamantan-1-ylmethyl-1H-imidazole hydrochloride],> 100,2.2 ± 0.5,
"Cn1ccnc1 [1-methylimidazole hydrochloride, reference compound]",> 100,> 100,
"O=C(Cn1cncn1)c1cccc2ccccc12 [1-naphthalen-1-yl-2-[1,2,4]triazol-1-yl-ethanone hydrochloride]",16 ± 5,0.79 ± 0.04,
"c1ccc(CCC2(Cn3ncnn3)OCCO2)cc1 [2-(2-Phenethyl-[1,3]dioxolan-2-ylmethyl)-2H-tetrazole hydrochloride]",> 100,72 ± 1,
"c1ccc(CCC2(Cn3ccnn3)OCCO2)cc1 [2-(2-phenethyl)-2-{(1H-[1,2,3]triazol-1-yl)methyl}-1,3-dioxolane hydrochloride]",> 100,> 100,
"c1ccc(CCC2(Cn3cncn3)OCCO2)cc1 [2-(2-phenethyl)-2-{(1H-[1,2,4]triazol-1-yl)methyl}-1,3-dioxolane hydrochloride]",> 100,13 ± 2,
O=C(Cn1ccnc1)c1ccc2ccc3cccc4ccc1c2c34 [2-Imidazol-1-yl-1-pyren-1-yl-ethanone hydrochloride],> 100,14 ± 3,
"Brc1ccc(CCC2(Cn3ccnc3)OCCO2)cc1 [2-[2-(4-bromophenyl)ethyl]-2-[(1H-imidazol-1-yl)methyl]-1,3-dioxolane hydrochloride]",,1.9 ± 0.2,> 100
"Clc1ccc(CCC2(Cn3ccnc3)OCCO2)cc1 [2-[2-(4-chlorophenyl)ethyl]-2-[(1H-imidazol-1-yl)methyl]-1,3-dioxolane hydrochloride]",> 100,4 ± 2,
"c1ccc(CCC2(Cn3ccnc3)OCCO2)cc1 [2-[2-phenylethyl]-2-[(1H-imidazol-1-yl)methyl]-1,3-dioxolane hydrochloride]",> 100,0.7 ± 0.4,
O=C(Cn1ccnc1)c1ccc(I)cc1 [2-imidazol-1-yl-1-(4-iodo-phenyl)ethanone],25 ± 5,4 ± 1,
"O=C(Cn1ccnc1)c1ccc2c(c1)CCCC2 [2-imidazol-1-yl-1-(5,6,7,8-tetrahydro-naphthalen-2-yl)-ethanone hydrochloride]",6.7 ± 0.3,4 ± 1,
O=C(Cn1ccnc1)c1ccc2c(c1)CCC2 [2-imidazol-1-yl-1-indan-5-yl-ethanone hydrochloride],37 ± 9,4.6 ± 0.1,
"O=C(CCc1ccccc1)Cn1cnc(-c2ccccc2)n1 [4-Phenyl-1-(3-phenyl-[1,2,4]triazol-1-yl)-butan-2-one]",90 ± 33,9 ± 2,
O=C(CCc1ccccc1)Cn1nnnc1-c1ccccc1 [4-Phenyl-1-(5-phenyl-tetrazol-1-yl)-butan-2-one],> 100,> 100,
O=C(CCc1ccccc1)Cn1nnc(-c2ccccc2)n1 [4-Phenyl-1-(5-phenyl-tetrazol-2-yl)-butan-2-one],> 100,> 100,
O=C(CCc1ccccc1)Cn1ccnc1-c1ccccc1 [4-phenyl-1-(2-phenyl-imidazol-1-yl)butan-2-one hydrochloride],> 100,> 100,
"OC[C@@H]1CO[C@@](CCc2ccc(Cl)cc2)(Cn2ccnc2)O1 [(2R,4R)-2-[2-(4-chlorophenyl)ethyl]-2-[(1H-imidazol-1-yl)methyl]-4-(hydroxymethyl)-1,3-dioxolane hydrochloride]",> 100,12 ± 2,
"C[C@@H]1CO[C@@](CCc2ccc(Cl)cc2)(Cn2ccnc2)O1 [(2R,4R)-2-[2-(4-chlorophenyl)ethyl]-2-[(1H-imidazol-1-yl)methyl]-4-methyl-1,3-dioxolane hydrochloride]",305 ± 25,0.8 ± 0.2,
"Clc1ccc(CC[C@@]2(Cn3ccnc3)OC[C@@H](CSc3ccc4ccccc4c3)O2)cc1 [(2R,4S)-1-[2-[2-(4-chloro-phenyl)-ethyl]-4-(naphthalen-2-ylsulfanylmethyl)-[1,3]dioxolan-2-ylmethyl]-1H-imidazole hydrochloride]",30 ± 4,0.9 ± 0.1,

# Second part, led by results:
IC50 (HO-2 (rat brain)) [µM],IC50 (HO-1 (rat spleen)) [µM],SMILES,IC50 (HO-2 (rat brain); hydrochloride) [µM]
6 ± 0.1,1.5 ± 0.2,O=C(CCCc1ccccc1)Cn1ccnc1 [1-imidazol-1-yl-5-phenyl-pentan-2-one hydrochloride],
114 ± 56,28 ± 6,O=C(CCc1ccccc1)CCn1ccnc1 [1-imidazol-1-yl-5-phenyl-pentan-3-one hydrochloride],
> 100,> 100,"c1ccc(CCC2(Cn3nccn3)OCCO2)cc1 [2-(2-Phenethyl-[1,3]dioxolan-2-ylmethyl)-2H-[1,2,3]triazole]",
0.9 ± 0.1,4 ± 2,O=C(Cn1ccnc1)c1ccc(CCc2ccccc2)cc1 [2-imidazol-1-yl-1-(4-phenethyl-phenyl)ethanone hydrochloride],
> 100,40 ± 7,c1ccc2c(CCn3ccnc3)c[nH]c2c1 [3-[2-(1H-Imidazol-1-yl)-ethyl]-1H-indole hydrochloride],
2.2 ± 0.2,2.6 ± 0.1,"O=C(CCn1ccnc1)C(c1ccccc1)c1ccccc1 [4-(1H-Imidazol-1-yl)-1,1-diphenyl-butan-2-one hydrochloride]",
> 100,6.7 ± 0.2,O=C(CCc1ccc(OC(=O)c2ccccc2)cc1)Cn1ccnc1 [4-(4-(1H-Imidazol-1-yl)-3-oxobutyl)phenyl benzoate hydrochloride],
1.4 ± 0.1,0.25 ± 0.01,O=C(CCc1ccc(C(F)(F)F)cc1)Cn1ccnc1 [4-(4-(Trifluoromethyl)phenyl)-1-(1H-imidazol-1-yl)-2-butanone hydrochloride],
> 100,> 100,O=C(CCc1ccc(O)cc1)Cn1ccnc1 [4-(4-Hydroxyphenyl)-1-(1H-imidazol-1-yl)butan-2-one hydrochloride],
4 ± 0.6,0.5 ± 0.1,OC(CCc1ccc(Cl)cc1)Cn1ccnc1 (stereo not shown) [4-(4-chlorophenyl)-1-(1H-imidazol-1-yl)butan-2-ol hydrochloride],
4 ± 2,0.47 ± 0.05,Clc1ccc(CCCCn2ccnc2)cc1 [4-(4-chlorophenyl)-1-(1H-imidazol-1-yl)butane hydrochloride],
1.8 ± 0.7,0.11 ± 0.06,O=C(CCc1ccc(I)cc1)Cn1ccnc1 [4-(4-iodophenyl)-1-(1H-imidazol-1-yl)butan-2-one hydrochloride],
0.9 ± 0.2,0.2 ± 0.03,CC(C)(C)c1ccc(CCC(=O)Cn2ccnc2)cc1 [4-(4-tert-Butyl-phenyl)-1-(1H-imidazol-1-yl)-butan-2-one hydrochloride],
~105,~98,Clc1ccc(OCCCCCNc2nc3ccccc3[nH]2)cc1 [(1H-Benzoimidazol-2-yl)-[5-(4-chloro-phenoxy)-pentyl]-amine],
38 ± 5,3.6 ± 0.2,"[N-]=[N+]=NC[C@@H]1CO[C@@](CCc2ccc(Cl)cc2)(Cn2ccnc2)O1 [(2R,4R)-1-{4-azidomethyl-2-[2-(4-chloro-phenyl)-ethyl]-[1,3]dioxolan-2-ylmethyl}-1H-imidazole]",
26 ± 3,10 ± 6,"Clc1ccc(CC[C@@]2(Cn3ccnc3)OC[C@@H](Cn3ccnc3)O2)cc1 [(2R,4R)-2-[2-(4-chlorophenyl)ethyl]-2-[(1H-imidazol-1-yl)methyl]-4-[(1H-imidazol-1-yl)methyl]-1,3-dioxolane dihydrochloride]",
> 43,2 ± 1,"C[C@@H]1CO[C@@](CCc2ccccc2)(Cn2ccnc2)O1 [(2R,4R)-2-[2-(4-phenyl)ethyl]-2-[(1H-imidazol-1-yl)methyl]-4-methyl-1,3-dioxolane hydrochloride]",
12.3 ± 0.5,6 ± 1,"Clc1ccc(CC[C@@]2(Cn3ccnc3)OC[C@@H](CSc3ccccc3Br)O2)cc1 [(2R,4S)-1-{4-(2-bromo-phenylsulfanylmethyl)-2-[2-(4-chloro-phenyl)-ethyl]-[1,3]dioxolan-2-ylmethyl}-1H-imidazole hydrochloride]",
22 ± 9,5 ± 2,"Clc1ccc(CC[C@@]2(Cn3ccnc3)OC[C@@H](CSc3cccc(Br)c3)O2)cc1 [(2R,4S)-1-{4-(3-bromo-phenylsulfanylmethyl)-2-[2-(4-chloro-phenyl)-ethyl]-[1,3]dioxolan-2-ylmethyl}-1H-imidazole hydrochloride]",
122 ± 30,3.5 ± 0.1,"ClC[C@@H]1CO[C@@](CCc2ccc(Cl)cc2)(Cn2ccnc2)O1 [(2R,4S)-1-{4-chloromethyl-2-[2-(4-chloro-phenyl)-ethyl]-[1,3]dioxolan-2-ylmethyl}-1H-imidazole hydrochloride]",
